# From ChEMBL document CHEMBL3885861, “Open TG-GATES”
# Organism: Rattus norvegicus
# Test: Open TG-GATES - Regimen: Daily Repeat
# Format: toxicity, organism-based, Sprague-Dawley
# Set-up: regimen Daily Repeat, gender Male, age 6 weeks
# Conditions: in vivo, po, route gavage; for TP / gamma-GTP / ALP / ALT / AST / BUN / CRE / Ca / Cl / DBIL / GLC / IP / K / LDH / Na / PL / RALB / TBIL / TC / TG: tissue Plasma; for APTT / Bas / Eos / Fbg / Hb / Ht / Lym / MCH / MCV / Mono / Neu / PT / Plat / RBC / Ret / WBC / MCHC: tissue Blood; for KIDNEY_L / KIDNEY_R / KIDNEY_TOTAL: tissue Kidney; for LIVER: tissue Liver
# [1] = 100 mg/kg, […], dose level Low, time 28 day
# [2] = 300 mg/kg, 72 h, dose level Middle, time 3 day
# [3] = 300 mg/kg, […], dose level Middle, time 7 day
# [4] = 300 mg/kg, […], dose level Middle, time 14 day
# [5] = 300 mg/kg, […], dose level Middle, time 28 day
smiles,measurement,setting,value
CCOc1ccc(NC(C)=O)cc1 [PHENACETIN],TP,[1],6.4 g/dL
same,gamma-GTP,[1],1 IU/L
same,TERMINAL_BW,[2],224.3 g
same,APTT,[2],21.5 s
same,Bas,[2],0%
same,Eos,[2],1.2%
same,Fbg,[2],290.8 mg/dL
same,Hb,[2],13.5 g/dL
same,Ht,[2],40.7%
same,Lym,[2],75.2%
same,MCH,[2],19.9 pg
same,MCV,[2],60.1 fL
same,Mono,[2],3.4%
same,Neu,[2],19.4%
same,PT,[2],13.4 s
same,Plat,[2],119.3 x10_4/uL
same,RBC,[2],678.8 x10_4/ul
same,Ret,[2],4.8%
same,WBC,[2],98.2 x10_2/uL
same,KIDNEY_L,[2],1 g
same,KIDNEY_R,[2],1 g
same,KIDNEY_TOTAL,[2],2 g
same,LIVER,[2],11.1 g
same,ALP,[2],1609.6 IU/L
same,ALT,[2],39.2 IU/L
same,AST,[2],66.2 IU/L
same,BUN,[2],13 mg/dL
same,CRE,[2],0.2 mg/dL
same,Ca,[2],11.1 mg/dL
same,Cl,[2],104.8 meq/L
same,DBIL,[2],0.01 mg/dL
same,GLC,[2],166 mg/dL
same,IP,[2],6.9 mg/dL
same,K,[2],4 meq/L
same,LDH,[2],69.4 IU/L
same,Na,[2],143.2 meq/L
same,PL,[2],174.4 mg/dL
same,RALB,[2],2.7 g/dL
same,TBIL,[2],0.044 mg/dL
same,TC,[2],80.4 mg/dL
same,TG,[2],145.4 mg/dL
same,TP,[2],5.7 g/dL
same,gamma-GTP,[2],1 IU/L
same,TERMINAL_BW,[3],262.8 g
same,TERMINAL_BW,[4],306 g
same,TERMINAL_BW,[5],397.8 g
same,APTT,[3],17.4 s
same,Bas,[3],0%
same,Eos,[3],1%
same,Fbg,[3],302.6 mg/dL
same,Hb,[3],13.3 g/dL
same,Ht,[3],40.1%
same,Lym,[3],71.8%
same,MCH,[3],20 pg
same,MCV,[3],60.2 fL
same,Mono,[3],2.8%
same,Neu,[3],24.2%
same,PT,[3],13.3 s
same,Plat,[3],122.3 x10_4/uL
same,RBC,[3],666.2 x10_4/ul
same,Ret,[3],6.7%
same,WBC,[3],103.2 x10_2/uL
same,Bas,[4],0.2%
same,Eos,[4],1%
same,Fbg,[4],273.2 mg/dL
same,Lym,[4],74.4%
same,MCH,[4],19.9 pg
same,MCHC,[4],33.5%
same,MCV,[4],59.3 fL
same,Mono,[4],2.2%
same,Neu,[4],21.8%
same,PT,[4],13.1 s
same,Plat,[4],125.2 x10_4/uL
same,RBC,[4],696.6 x10_4/ul
same,Ret,[4],6.5%
same,WBC,[4],128 x10_2/uL
same,APTT,[5],21.1 s
same,Bas,[5],0.2%
same,Eos,[5],1.2%
same,Fbg,[5],262.4 mg/dL
same,Hb,[5],14.4 g/dL
same,Ht,[5],42.5%
same,Lym,[5],76.4%
same,MCH,[5],19.1 pg
same,MCHC,[5],33.8%
same,MCV,[5],56.4 fL
same,Mono,[5],1.8%
same,PT,[5],13.7 s
same,Plat,[5],103.8 x10_4/uL
same,RBC,[5],754.2 x10_4/ul
same,Ret,[5],4.9%
same,WBC,[5],159.4 x10_2/uL
same,KIDNEY_L,[3],1.2 g
same,KIDNEY_R,[3],1.1 g
same,KIDNEY_TOTAL,[3],2.3 g
same,KIDNEY_L,[4],1.2 g
same,KIDNEY_R,[4],1.2 g
same,KIDNEY_TOTAL,[4],2.5 g
same,KIDNEY_L,[5],1.4 g
same,KIDNEY_R,[5],1.4 g
same,KIDNEY_TOTAL,[5],2.9 g
same,LIVER,[4],12.6 g
same,ALP,[3],1712.6 IU/L
same,ALT,[3],39.4 IU/L
same,AST,[3],64.6 IU/L
same,CRE,[3],0.2 mg/dL
same,Ca,[3],11 mg/dL
same,Cl,[3],104.2 meq/L
same,DBIL,[3],0.008 mg/dL
same,GLC,[3],177.8 mg/dL
same,IP,[3],6.9 mg/dL
same,K,[3],4.3 meq/L
same,LDH,[3],79.4 IU/L
same,PL,[3],174.4 mg/dL
same,RALB,[3],2.7 g/dL
same,TBIL,[3],0.048 mg/dL
same,TC,[3],81.6 mg/dL
same,TG,[3],149 mg/dL
same,TP,[3],5.9 g/dL
same,gamma-GTP,[3],1.4 IU/L
same,ALP,[4],1577.4 IU/L
same,ALT,[4],37.2 IU/L
same,AST,[4],63 IU/L
same,BUN,[4],14.2 mg/dL
same,CRE,[4],0.2 mg/dL
same,Ca,[4],10.7 mg/dL
same,DBIL,[4],0.02 mg/dL
same,GLC,[4],181.8 mg/dL
same,IP,[4],6.3 mg/dL
same,K,[4],4.3 meq/L
same,LDH,[4],159.2 IU/L
same,Na,[4],144.2 meq/L
same,PL,[4],162.2 mg/dL
same,RALB,[4],2.7 g/dL
same,TBIL,[4],0.086 mg/dL
same,TC,[4],78.4 mg/dL
same,TG,[4],91.2 mg/dL
same,TP,[4],5.9 g/dL
same,gamma-GTP,[4],1 IU/L
same,ALP,[5],1081 IU/L
same,ALT,[5],40 IU/L
same,AST,[5],63 IU/L
same,BUN,[5],14.4 mg/dL
same,CRE,[5],0.3 mg/dL
same,Cl,[5],105.6 meq/L
same,DBIL,[5],0.02 mg/dL
same,GLC,[5],175.4 mg/dL
same,IP,[5],5.9 mg/dL
same,K,[5],4.1 meq/L
same,LDH,[5],53.2 IU/L
same,Na,[5],145 meq/L
same,PL,[5],156.2 mg/dL
same,RALB,[5],2.8 g/dL
same,TBIL,[5],0.074 mg/dL
same,TC,[5],70.2 mg/dL
same,TG,[5],122.8 mg/dL
same,TP,[5],6.2 g/dL
same,gamma-GTP,[5],1 IU/L
